The text below walks through data of ChEMBL document CHEMBL3868595, “Plazomicin is effective in a non-human primate pneumonic plague model” (Bioorg Med Chem, 2016).

In series [1] the test system is Yersinia pestis. Kind of series: Antibacterial activity against Yersinia pestis Colorado 92 infected in African green monkey 8047 model assessed as bacterial burden in liver at 6.25 mg/kg, iv administered within 6 hrs post onset of sustained fever as 30 mins infusion for 10 days (reference value: 5.2 10^8CFU/g). It is filed as functional, CO92.
Series [2] has as its system Yersinia pestis. The series can be described thus: Antibacterial activity against Yersinia pestis Colorado 92 infected in African green monkey C2149 model assessed as bacterial burden in tracheobronchial lymph nodes at 6.25 mg/kg, iv administered within 6 hrs post onset of sustained fever as 30 mins infusion for 5 days (reference value: 7.7 10^9CFU/g). The class given is functional, CO92, Lymph node.

In series [3] the test system is African green monkey. The series can be described thus: Toxicity in African green monkey B6291 model infected with Yersinia pestis Colorado 92 assessed as serum gamma glutamyl-transferase level at 25 mg/kg, iv administered within 6 hrs post onset of sustained fever as 30 mins infusion for 10 days (reference value: 77 IU/L). It is filed as organism-based. The settings on record: chlorocebus sabaeus, in vivo.

Series [4] concerns African green monkey. Kind of series: Toxicity in African green monkey B6291 model infected with Yersinia pestis Colorado 92 assessed as blood urea nitrogen level at 25 mg/kg, iv administered within 6 hrs post onset of sustained fever as 30 mins infusion for 10 days (reference value: 24 mg/dl). It is filed as organism-based. Particulars: chlorocebus sabaeus, in vivo.
Series [5] deals with Yersinia pestis. Kind of series: Antibacterial activity against Yersinia pestis Colorado 92 infected in African green monkey B6436 model assessed as bacterial burden in liver at 25 mg/kg, iv administered within 6 hrs post onset of sustained fever as 30 mins infusion for 5 days (reference value: 5.2 10^8CFU/g). The class given is functional, organism-based. Particulars: CO92.

Series [6] has as its system Yersinia pestis. The series can be described thus: Antibacterial activity against Yersinia pestis Colorado 92 infected in African green monkey B6873 model assessed as bacterial burden in tracheobronchial lymph nodes at 12.5 mg/kg, iv administered within 6 hrs post onset of sustained fever as 30 mins infusion for 5 days (reference value: 7.7 10^9CFU/g). It is filed as functional, organism-based. The settings on record: CO92, Lymph node.

Series [7] can be described thus: Clearance in African green monkey blood at 25 mg/kg administered as iv infusion twice daily for 7 consecutive days measured on day 7 by LC-MS/MS analysis. Particulars: chlorocebus aethiops. The class given is ADME, organism-based.
In series [8] the test system is Yersinia pestis. The series can be described thus: Antibacterial activity against Yersinia pestis Colorado 92 infected in African green monkey B6889 model assessed as bacterial burden in lung at 6.25 mg/kg, iv administered within 6 hrs post onset of sustained fever as 30 mins infusion for 5 days (reference value: 7.7 10^8CFU/g). It is filed as functional, CO92.
For series [9], the system named is Yersinia pestis. Kind of series: Antibacterial activity against Yersinia pestis Colorado 92 infected in African green monkey B6106 model assessed as bacterial burden in liver at 25 mg/kg, iv administered within 6 hrs post onset of sustained fever as 30 mins infusion for 5 days (reference value: 5.2 10^8CFU/g). The class given is functional, CO92.
Series [10] relates to Yersinia pestis. The series can be described thus: Antibacterial activity against Yersinia pestis Colorado 92 infected in African green monkey 8047 model assessed as bacterial burden in brain at 6.25 mg/kg, iv administered within 6 hrs post onset of sustained fever as 30 mins infusion for 10 days (reference value: 1.9 10^6CFU/g). The class given is functional, CO92.
Series [11] has as its system Yersinia pestis. The series can be described thus: Antibacterial activity against Yersinia pestis Colorado 92 infected in African green monkey C2083 model assessed as bacterial burden in heart at 12.5 mg/kg, iv administered within 6 hrs post onset of sustained fever as 30 mins infusion for 5 days (reference value: 2.6 10^7CFU/g). It is filed as functional, CO92.
Series [12] relates to Yersinia pestis. Kind of series: Antibacterial activity against Yersinia pestis Colorado 92 infected in African green monkey B6861 model assessed as bacterial burden in heart at 6.25 mg/kg, iv administered within 6 hrs post onset of sustained fever as 30 mins infusion for 5 days (reference value: 2.6 10^7CFU/g). It is filed as functional, CO92.
In series [13] the test system is African green monkey. Kind of series: Toxicity in African green monkey B6140 model infected with Yersinia pestis Colorado 92 assessed as serum creatinine level at 25 mg/kg, iv administered within 6 hrs post onset of sustained fever as 30 mins infusion for 10 days (reference value: 0.8 mg/dl). It is filed as organism-based. The settings on record: chlorocebus sabaeus, in vivo.

Series [14] deals with Yersinia pestis. The series can be described thus: Antibacterial activity against Yersinia pestis Colorado 92 infected in African green monkey B6861 model assessed as bacterial burden in liver at 6.25 mg/kg, iv administered within 6 hrs post onset of sustained fever as 30 mins infusion for 5 days (reference value: 5.2 10^8CFU/g). It is filed as functional, CO92.
Series [15] has as its system African green monkey. Kind of series: Toxicity in African green monkey B5994 model infected with Yersinia pestis Colorado 92 assessed as serum gamma glutamyl-transferase level at 25 mg/kg, iv administered within 6 hrs post onset of sustained fever as 30 mins infusion for 10 days (reference value: 35 IU/L). The class given is organism-based. Particulars: chlorocebus sabaeus, in vivo.

Series [16] concerns Yersinia pestis. Kind of series: Antibacterial activity against Yersinia pestis Colorado 92 infected in African green monkey B6783 model assessed as bacterial burden in lung at 12.5 mg/kg, iv administered within 6 hrs post onset of sustained fever as 30 mins infusion for 5 days (reference value: 7.7 10^8CFU/g). The class given is functional, CO92.
For series [17], the system named is Yersinia pestis. Kind of series: Antibacterial activity against Yersinia pestis Colorado 92 infected in African green monkey B6106 model assessed as bacterial burden in lung at 25 mg/kg, iv administered within 6 hrs post onset of sustained fever as 30 mins infusion for 5 days (reference value: 7.7 10^8CFU/g). The class given is functional, CO92.
Series [18] in a line: Cmax in African green monkey blood at 35 mg/kg administered as iv infusion twice daily for 7 consecutive days measured on day 7 by LC-MS/MS analysis. The class given is ADME, organism-based. On the set-up: dose 35 mg/kg, route intravenous. The settings on record: chlorocebus aethiops.
Series [19] concerns African green monkey. The series can be described thus: Toxicity in African green monkey B6140 model infected with Yersinia pestis Colorado 92 assessed as blood urea nitrogen level at 25 mg/kg, iv administered within 6 hrs post onset of sustained fever as 30 mins infusion for 10 days (reference value: 24 mg/dl). It is filed as organism-based. Particulars: chlorocebus sabaeus, in vivo.

For `CN[C@@H]1[C@@H](O)[C@@H](O[C@@H]2[C@@H](O)[C@H](O[C@H]3OC(CNCCO)=CC[C@H]3N)[C@@H](N)C[C@H]2NC(=O)[C@@H](O)CCN)OC[C@]1(C)O` [PLAZOMICIN], the Activity in series [1] was 1.3 ×10⁶ CFU/g; in series [2], 1 ×10⁹ CFU/g; in [3] it was 102 IU/L; in [4], 21 mg/dL; in [5], “Below limit of detection”; in series [6], “Below limit of detection”. Further, the Activity came out at 2.2 ×10⁹ CFU/g in series [8]; 95 CFU/g in series [9]; 60 CFU/g in [10]; 1.5 ×10⁷ CFU/g in [11]; 16 CFU/g in series [12]; 0.7 mg/dL in series [13]. The Activity turned out to be 16 CFU/g in series [14]; 38 IU/L in series [15]; 2.8 ×10⁹ CFU/g in series [16]; 19 CFU/g in series [17]; 27 mg/dL in series [19]. Moreover, the clearance (commonly a measure of how efficiently the substance is removed, as volume per time) in series [7] was 1.83 mL/min/kg. Moreover, the Cmax (in general, the maximum level reached in the sampled fluid or tissue) in series [18] is 185 µg/mL.
